Assay results: patent US11826355B1, “Aspirin-mimetic antioxidants for treatment of age-related cataract” (priority 2022, dated 2023)
Values joined by “and” are separate entries in the source; they are usually repeats but may differ in a detail not shown here. Identical values can stand only once.

Assays:
[1] = tested on: Wistar rat cataract model induced by sodium selenite; assay: Lens opacity score (slit lamp) in sodium selenite-induced cataract rat model; assay type: in vivo; parameters: lens opacity score, Mean / lens opacity score / lens opacity score, raw data per eye (OD/OS, rats 1-6): scale not given here
Experimental: A new batch of eye drops solutions was prepared every week. Placebo was a solution that contained the same excipients but without the drug compound. The eye drops solutions were prepared as follows:
3. An illustrative procedure: To a 250 mL volume flask were added 25 mg each of the excipients, sodium borate, boric acid, sodium chloride, and potassium chloride, an aspirin mimetic drug compound to be tested (e.g., DPL-004, 9.0 mg), and about 200 ml of sterilized water to form a mixture. The resultant mixture was shaken well to dissolve solids; and more sterilized water was added to bring the volume of solution to 250 mL, which was shaken well and then distributed into small portions. Each portion was labeled with a concentration of 3.6 mg/100 mL and the preparation date and was stored in a refrigerator for future use.
4. Eye drops solutions comprising DPL-004 at a concentration of 36 mg/100 mL and 12 mg/100 mL were prepared similarly according to the above procedure by using 90 mg and 30 mg of DPL-004, respectively, while maintaining the same amounts of excipients as shown above.
(§1) At the age of 11-12 days after birth, all suckling rats underwent a single intraperitoneal injection of sodium selenite (30 μmol/kg, i.e., 0.1 ml/10 g) for model-building. Sodium selenite solution was configured with normal saline at a concentration of 3 mM.
(§2) At the age of 19 days after birth (D-1) of the suckling rats, 30 lens opacities were selected for a cloudy rating at Class 4 or 5; Wister suckling rats were randomly divided into 5 groups (G1-G5 groups, 6 in each group); and a cage of suckling rats as G6 was randomly selected after the animals opened their eyes (14-16 days of age).
(§3) The subject suckling rats of groups G1 to G5 were treated at the age of 20 days after birth (D1), and the specific dosing information is shown in Table 1. Treatment in the G6 group was conducted after the animals opened their eyes (14-16 days old, D-6-D-4), and the specific dosing information is shown in Table 1.
At D-1, in the fourth week of treatment, the slit lamp was used at the end of administration to observe the turbidity of the lens and grade it, and the grading and scoring criteria are shown in the following Table 2.

[2] = General clinical observations during 60-day eye drop administration; assay type: in vivo, rat; conditions: eye drops 3 times/day, 60-day administration phase, all concentrations
Source text: as §2

[3] = Body weight of rats in the cataract model study; assay type: in vivo, rat; conditions: 10 μl 3 times/day
Experimental: as §1, §2, §3

[4] = G3, 36 mg/0.1 L D1-D31 then 1.8 mg/0.1 L D32-D60, 10 μl 3 times/day, pH 6.5, day 60
[5] = G3, 36 mg/0.1 L, 10 μl 3 times/day, pH 6.5, day 28
[6] = G3, 36 mg/0.1 L, 10 μl 3 times/day, pH 6.5, day -1 (before administration)
[7] = G4, 12 mg/0.1 L, 10 μl 3 times/day, pH 6.5, day 28
[8] = G4, 12 mg/0.1 L, 10 μl 3 times/day, pH 6.5, day 60
[9] = G4, 12 mg/0.1 L, 10 μl 3 times/day, pH 6.5, day -1 (before administration)
[10] = G5, 3.6 mg/0.1 L, 10 μl 3 times/day, pH 6.5, day 28
[11] = G5, 3.6 mg/0.1 L, 10 μl 3 times/day, pH 6.5, day 60
[12] = G5, 3.6 mg/0.1 L, 10 μl 3 times/day, pH 6.5, day -1 (before administration)
[13] = G6 preventive dosing from D-6, 3.6 mg/0.1 L, 10 μl 3 times/day, pH 7.4, day 22
[14] = G6 preventive dosing from D-6, 3.6 mg/0.1 L, 10 μl 3 times/day, pH 7.4, day -1
[15] = G6 preventive dosing from D-6, 3.6 mg/0.1 L, 10 μl 3 times/day, pH 7.4, day -6
[16] = G6 preventive dosing from D-6, 3.6 mg/0.1 L, 10 μl 3 times/day, pH 7.4 to D31 then pH 6.0 D32-D60, day 60

O=C(Sc1ccccc1C(=O)S)c1cccnc1 [DPL-004, 2-[(pyridine-3-carbonyl)sulfanyl]benzene-1-carbothioic S-acid]
lens opacity score, Mean [1, 4]: 2.75
lens opacity score, raw data per eye (OD/OS, rats 1-6) [1, 4]: 2 and 3 and 4
lens opacity score, Mean [1, 5]: 3.58
lens opacity score, raw data per eye (OD/OS, rats 1-6) [1, 5]: 3 and 4
lens opacity score, Mean [1, 6]: 4.00
lens opacity score, raw data per eye (OD/OS, rats 1-6) [1, 6]: 4
lens opacity score, Mean [1, 7]: 3.50
lens opacity score, raw data per eye (OD/OS, rats 1-6) [1, 7]: 3 and 4
lens opacity score, Mean [1, 8]: 2.58
lens opacity score, raw data per eye (OD/OS, rats 1-6) [1, 8]: 2 and 3 and 4
lens opacity score, Mean [1, 9]: 4.00
lens opacity score, raw data per eye (OD/OS, rats 1-6) [1, 9]: 4
Efficacy (reduction of lens opacity score vs placebo G2) ([1]; G4, 12 mg/0.1 L, pH 6.5, D28): 4.63%
Efficacy (reduction of lens opacity score vs placebo G2) ([1]; G4, 12 mg/0.1 L, pH 6.5, D60): 14.0%
lens opacity score, Mean [1, 10]: 3.42
lens opacity score, raw data per eye (OD/OS, rats 1-6) [1, 10]: 4 and 3
lens opacity score, Mean [1, 11]: 2.58
lens opacity score, raw data per eye (OD/OS, rats 1-6) [1, 11]: 3 and 4 and 2
lens opacity score, Mean [1, 12]: 4.00
lens opacity score, raw data per eye (OD/OS, rats 1-6) [1, 12]: 4
Efficacy (reduction of lens opacity score vs placebo G2) ([1]; G5, 3.6 mg/0.1 L, pH 6.5, D28): 6.81%
Efficacy (reduction of lens opacity score vs placebo G2) ([1]; G5, 3.6 mg/0.1 L, pH 6.5, D60): 14.0%
lens opacity score ([1]; G6 early intervention, 3.6 mg/0.1 L, pH 7.4, in the period of 28 days): 4.0
lens opacity score, Mean [1, 13]: 4.00
lens opacity score, raw data per eye (OD/OS, rats 1-6) [1, 13]: 4
lens opacity score, Mean [1, 14]: 4.00
lens opacity score, raw data per eye (OD/OS, rats 1-6) [1, 14]: 4
lens opacity score, Mean [1, 15]: 4.00
lens opacity score, raw data per eye (OD/OS, rats 1-6) [1, 15]: 4
lens opacity score, Mean [1, 16]: 3.08
lens opacity score, raw data per eye (OD/OS, rats 1-6) [1, 16]: 4 and 3 and 2
effect on cataract in the rat model (in words) ([1]; eye drops, rat model): gradually reversing cataracts
abnormal symptoms (activity status, body weight, skin hair, secretion morphology and color) [2]: no abnormal symptoms
Body Weight, Mean ([3]; G3, 36 mg/0.1 L (D32-D60 1.8 mg/0.1 L), pH 6.5, day 4): 58.22 g
Body Weight, Mean ([3]; G3, 36 mg/0.1 L (D32-D60 1.8 mg/0.1 L), pH 6.5, day 11): 97.48 g
Body Weight, Mean ([3]; G3, 36 mg/0.1 L (D32-D60 1.8 mg/0.1 L), pH 6.5, day 18): 130.98 g
Body Weight, Mean ([3]; G3, 36 mg/0.1 L (D32-D60 1.8 mg/0.1 L), pH 6.5, day 25): 161.68 g
Body Weight, Mean ([3]; G3, 36 mg/0.1 L (D32-D60 1.8 mg/0.1 L), pH 6.5, day 32): 184.12 g
Body Weight, Mean ([3]; G3, 36 mg/0.1 L (D32-D60 1.8 mg/0.1 L), pH 6.5, day 39): 210.05 g
Body Weight, Mean ([3]; G3, 36 mg/0.1 L (D32-D60 1.8 mg/0.1 L), pH 6.5, day 46): 232.55 g
Body Weight, Mean ([3]; G3, 36 mg/0.1 L (D32-D60 1.8 mg/0.1 L), pH 6.5, day 53): 256.08 g
Body Weight, Mean ([3]; G3, 36 mg/0.1 L (D32-D60 1.8 mg/0.1 L), pH 6.5, day 60): 273.13 g
Body Weight, Mean ([3]; G3, 36 mg/0.1 L (D32-D60 1.8 mg/0.1 L), pH 6.5, day -1 (before administration)): 45.68 g
Body Weight, Mean ([3]; G4, 12 mg/0.1 L, pH 6.5, day 4): 59.37 g
Body Weight, Mean ([3]; G4, 12 mg/0.1 L, pH 6.5, day 11): 98.03 g
Body Weight, Mean ([3]; G4, 12 mg/0.1 L, pH 6.5, day 18): 138.57 g
Body Weight, Mean ([3]; G4, 12 mg/0.1 L, pH 6.5, day 25): 166.05 g
Body Weight, Mean ([3]; G4, 12 mg/0.1 L, pH 6.5, day 32): 188.40 g
Body Weight, Mean ([3]; G4, 12 mg/0.1 L, pH 6.5, day 39): 209.05 g
Body Weight, Mean ([3]; G4, 12 mg/0.1 L, pH 6.5, day 46): 232.02 g
Body Weight, Mean ([3]; G4, 12 mg/0.1 L, pH 6.5, day 53): 240.18 g
Body Weight, Mean ([3]; G4, 12 mg/0.1 L, pH 6.5, day 60): 269.85 g
Body Weight, Mean ([3]; G4, 12 mg/0.1 L, pH 6.5, day -1 (before administration)): 46.10 g
Body Weight, Mean ([3]; G5, 3.6 mg/0.1 L, pH 6.5, day 4): 60.25 g
Body Weight, Mean ([3]; G5, 3.6 mg/0.1 L, pH 6.5, day 11): 101.48 g
Body Weight, Mean ([3]; G5, 3.6 mg/0.1 L, pH 6.5, day 18): 149.00 g
Body Weight, Mean ([3]; G5, 3.6 mg/0.1 L, pH 6.5, day 25): 188.37 g
Body Weight, Mean ([3]; G5, 3.6 mg/0.1 L, pH 6.5, day 32): 230.95 g
Body Weight, Mean ([3]; G5, 3.6 mg/0.1 L, pH 6.5, day 39): 257.97 g
Body Weight, Mean ([3]; G5, 3.6 mg/0.1 L, pH 6.5, day 46): 304.65 g
Body Weight, Mean ([3]; G5, 3.6 mg/0.1 L, pH 6.5, day 53): 323.03 g
Body Weight, Mean ([3]; G5, 3.6 mg/0.1 L, pH 6.5, day 60): 343.05 g
Body Weight, Mean ([3]; G5, 3.6 mg/0.1 L, pH 6.5, day -1 (before administration)): 45.40 g
Body Weight, Mean ([3]; G6 preventive dosing from D-6, 3.6 mg/0.1 L, pH 7.4 (D32-D60 pH 6.0), day 4): 62.15 g
Body Weight, Mean ([3]; G6 preventive dosing from D-6, 3.6 mg/0.1 L, pH 7.4 (D32-D60 pH 6.0), day 11): 106.70 g
Body Weight, Mean ([3]; G6 preventive dosing from D-6, 3.6 mg/0.1 L, pH 7.4 (D32-D60 pH 6.0), day 18): 140.92 g
Body Weight, Mean ([3]; G6 preventive dosing from D-6, 3.6 mg/0.1 L, pH 7.4 (D32-D60 pH 6.0), day 25): 171.78 g
Body Weight, Mean ([3]; G6 preventive dosing from D-6, 3.6 mg/0.1 L, pH 7.4 (D32-D60 pH 6.0), day 32): 211.43 g
Body Weight, Mean ([3]; G6 preventive dosing from D-6, 3.6 mg/0.1 L, pH 7.4 (D32-D60 pH 6.0), day 39): 251.03 g
Body Weight, Mean ([3]; G6 preventive dosing from D-6, 3.6 mg/0.1 L, pH 7.4 (D32-D60 pH 6.0), day 46): 283.27 g
Body Weight, Mean ([3]; G6 preventive dosing from D-6, 3.6 mg/0.1 L, pH 7.4 (D32-D60 pH 6.0), day 53): 303.65 g
Body Weight, Mean ([3]; G6 preventive dosing from D-6, 3.6 mg/0.1 L, pH 7.4 (D32-D60 pH 6.0), day 60): 330.03 g
Body Weight, Mean ([3]; G6 preventive dosing from D-6, 3.6 mg/0.1 L, pH 7.4 (D32-D60 pH 6.0), day -1): 45.27 g
Body Weight, Mean ([3]; G6 preventive dosing from D-6, 3.6 mg/0.1 L, pH 7.4 (D32-D60 pH 6.0), day -6): 35.83 g
